According to publication PMC5992921, “The effect of different divalent cations on the kinetics and fidelity of Bacillus stearothermophilus DNA polymerase” (AIMS biophysics, 2018):

Target: T1, BST pol (Bacillus stearothermophilus DNA polymerase) (Geobacillus stearothermophilus, UniProt P52026)
T1 construct: gene polA
T1 sequence (P52026 297-876 limits assumed): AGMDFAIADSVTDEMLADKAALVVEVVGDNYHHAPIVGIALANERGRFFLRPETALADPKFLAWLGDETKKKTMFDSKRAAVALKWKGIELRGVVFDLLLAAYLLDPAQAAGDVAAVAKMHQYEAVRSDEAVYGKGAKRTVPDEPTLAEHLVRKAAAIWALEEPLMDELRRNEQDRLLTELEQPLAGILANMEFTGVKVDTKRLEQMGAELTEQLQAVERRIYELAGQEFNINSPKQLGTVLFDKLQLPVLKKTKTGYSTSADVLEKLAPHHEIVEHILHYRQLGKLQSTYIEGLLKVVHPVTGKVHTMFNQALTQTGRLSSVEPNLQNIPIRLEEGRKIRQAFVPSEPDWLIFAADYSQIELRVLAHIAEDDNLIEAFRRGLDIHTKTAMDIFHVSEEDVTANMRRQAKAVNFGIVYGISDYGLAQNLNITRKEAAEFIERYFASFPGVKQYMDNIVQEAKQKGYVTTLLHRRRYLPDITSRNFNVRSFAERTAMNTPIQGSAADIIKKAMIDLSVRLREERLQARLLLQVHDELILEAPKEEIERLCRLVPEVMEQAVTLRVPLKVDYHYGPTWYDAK
Assay: equilibrium 2-aminopurine fluorescence quenching titration
Format: binding
Details: read-out: Kd,g

Kd: 1460 ± 130 µM
Structure (SMILES): Nc1ccn([C@H]2C[C@H](O)[C@@H](COP(=O)(O)OP(=O)(O)OP(=O)(O)O)O2)c(=O)n1 [dCTP]
